Entries after “also recorded” stand apart in the source; their conditions may differ.
Assays:
KCI-10-40X1/erl tumors = assay: Erlotinib-resistant EGFRamp PDX therapeutic efficacy; format: in vivo, mouse; conditions: continued erlotinib treatment, discontinuing accelerated growth
Method: (§1) All animal studies were approved by the IACUC of Van Andel Research Institute. Subcutaneous and orthotopic tumor initiation were performed as previously described. The orthotopic tumor growth was measured by bioluminescence signal intensity (BLI) using a small animal optical imager AMI 1000 (Spectral Instruments Imaging, LLC). Dosing with V-4084 and/or erlotinib was delivered once daily by oral gavage for 3 weeks. Vehicles used were 0.5 % MC 400 with 0.05 % Tween 80 (for V-4084) and with 0.5 % (w/v) methyl cellulose (for erlotinib). To determine the effectiveness of treatment, the average tumor size of each group from the last measurement was analyzed with Student’s t test (p < 0.05).
(§2) To induce acquired resistance, KCI-10-40X1cells were inoculated into nude mice subcutaneously followed by continuous erlotinib treatment (75–100 mg/kg). […] The same transplant procedure was serially repeated four times to establish the tumor model adaptive to erlotinib treatment (KCI-10-40X1/erl). […] A combination of V-4084 and erlotinib, however, retarded KCI-10-40X1/erl tumor growth (Fig. 5E).

KCI-10-40X1 tumors = assay: EGFRamp PDX therapeutic efficacy; format: in vivo, mouse
Method: as §1, §2

G116 PDX model = assay: GBM PDX therapeutic efficacy; format: in vivo, mouse; conditions: G116, highest HGF expression, single agent
Method: as §1

G91 PDX model = assay: GBM PDX therapeutic efficacy; format: in vivo, mouse; conditions: G91, no HGF expression, single agent
Method: as §1

U87MG cells = assay: 3D cell invasion assay (spheroid dispersal on Matrigel); format: cell-based, human; conditions: at 50 μM, day 3
Method: U87MG cells were first grown in 1 % soft agar (Sigma) for 7 days to form spheroids. Each spheroid was then selected and placed onto Matrigel in a well to attach overnight (day 0), followed by treatment with DMSO or serially diluted compounds. Images were taken after an additional 3 days under a light microscope. Triplicates were tested for each concentration.

Structure (SMILES) | Tumor growth (KCI-10-40X1/erl tumors) | Time of continuous treatment until tumors regrow (start of acquired resistance) (KCI-10-40X1 tumors; KCI-10-40X1, continuous erlotinib 75–100 mg/kg) [weeks] | Tumor response to treatment (KCI-10-40X1 tumors; KCI-10-40X1 subcutaneous in nude mice, erlotinib 75 mg/kg, first week) | PDX tumor response to treatment (G116 PDX model) | PDX tumor response to treatment (G91 PDX model) | U87MG cell dispersal (anti-migratory activity) (U87MG cells)
C#Cc1cccc(Nc2ncnc3cc(OCCOC)c(OCCOC)cc23)c1 [erlotinib] | grow while on erlotinib treatment | 5 | high sensitivity; also recorded: significant tumor regression | no effect | exactly the opposite | –
Cn1nnc2c(C(N)=O)ncn2c1=O [TMZ, Temozolomide] | – | – | – | – | – | failed to show any anti-migratory activity

Source: paper PMC4574608, “Genomic profiling of a Hepatocyte growth factor-dependent signature for MET-targeted therapy in glioblastoma” (Journal of Translational Medicine, 2015)
